Data taken from paper PMC6445138 (2019).
Values belong to the compound of their own block, whether it stands above or below them.

Experiments:
[1] = test system: ab13_14_15 (RNA, riboswitch, abasic at 13, 14 and 15) CUGGGUCGCAGUNNNCCCAGUUAACAAAACAAG; experiment: X-ray crystallography
[2] = test system: 5′-AF647-TtPreQ1-RS (RNA, riboswitch) CUGGGUCGCAGUAACCCCAGUUAACAAAACAAG; experiment: fluorescence intensity titration of labelled RNA; conditions: 100 mM KCl, 1 mM MgCl2; 50 mM Tris pH 7.5, 10% DMSO, room temperature, RNA 50 nM; apparent
[3] = test system: 5′-Cy5-BsPreQ1-RS (RNA, riboswitch) AGAGGUUCUAGCUACACCCUCUAUAAAAAACUAA; experiment: fluorescence intensity titration of labelled RNA; conditions: 100 mM KCl, 1 mM MgCl2; 50 mM Tris pH 7.5, 10% DMSO, room temperature, RNA 50 nM; apparent
[4] = test system: SsPreQ1-RS (unlabeled) (RNA, riboswitch) AGAGGUUCCUAGCUGAUACCCUCUAUAAAAAACUA; experiment: WaterLOGSY NMR; conditions: 100 mM KCl, 1 mM MgCl2
[5] = test system: TtPreQ1-RS (unlabeled) (RNA, riboswitch) CUGGGUCGCAGUAACCCCAGUUAACAAAACAAG; experiment: WaterLOGSY and CPMG NMR; conditions: 100 mM KCl, 1 mM MgCl2; 50 mM Tris-d11 pH 7.5, 5% DMSO-d6; non-binding control, tested at 375 µM
[6] = test system: BsPreQ1-RS (unlabeled) (RNA, riboswitch) AGAGGUUCUAGCUACACCCUCUAUAAAAAACUAA; experiment: WaterLOGSY and CPMG NMR; conditions: 100 mM KCl, 1 mM MgCl2; 50 mM Tris-d11 pH 7.5, 5% DMSO-d6; non-binding control, tested at 375 µM
[7] = test system: ab13_14 (RNA, riboswitch, abasic at 13 and 14) CUGGGUCGCAGUNNCCCCAGUUAACAAAACAAG; experiment: X-ray crystallography
[8] = test system: Ss PreQ1 TTA transcript (RNA, riboswitch) AUGUAGUAAGGAGGUUGUAUGGAAGACGAGAGGUUCCUAGCUGAUACCCUCUAUAAAAAACUAGACACAUGUACAACGUCUGUCUUUUUUAUAGAGAUAGGCGUUUUUUUAUGCGCUUAUCUAAACCCUGUACCAGUUAGUUCGACUAUUUUUAAGGAGU; experiment: single-round in vitro transcription termination; conditions: KCl, MgCl2; 20 mM Tris-HCl pH 8.0, 37 °C, E. coli RNA polymerase
[9] = test system: 5′-AF647-BsPreQ1-RS (RNA, riboswitch) GGAGAGGUUCUAGCUACACCCUCUAUAAAAAACUAA; experiment: in-line probing; conditions: 10 mM KCl, 2 mM MgCl2
[10] = test system: BsPreQ1-RS (unlabeled) (RNA, riboswitch) AGAGGUUCUAGCUACACCCUCUAUAAAAAACUAA; experiment: inherent ligand fluorescence titration; conditions: 100 mM KCl, 1 mM MgCl2; 50 mM Tris pH 7.5, 5% DMSO, room temperature, compound 500 nM
[11] = test system: TtPreQ1-RS (unlabeled) (RNA, riboswitch) CUGGGUCGCAGUAACCCCAGUUAACAAAACAAG; experiment: inherent ligand fluorescence titration; conditions: 100 mM KCl, 1 mM MgCl2; 50 mM Tris pH 7.5, 5% DMSO, room temperature, compound 500 nM

- binding ([1]; 2.56 Å): yes
- KD [2]: 100 ± 40 nM
- KD [3]: 100 ± 80 nM
SMILES: CN(C)CCOc1ccc2[nH]c3ccccc3c2c1

- binding ([4]; 50 mM Tris-d11 pH 7.5, 5% DMSO-d6, non-binding control, tested at 375 µM): no
- binding [5]: no
- binding [6]: no
SMILES: CN[C@H](C(=O)O)C(C)C

- binding ([7]; 1.94 Å): yes
- KD [2]: 600 ± 200 nM
- KD [3]: 400 ± 100 nM
SMILES: CN(C)CCOc1ccc2oc3ccccc3c2c1

- binding ([7]; 1.69 Å): yes
- EC50 [8]: 36 ± 5 nM
- binding ([9]; 50 mM Tris pH 8.3, room temperature, compound 10 µM): yes
- KD [2]: 2.8 ± 0.4 nM
- KD [3]: 4.1 ± 0.6 nM
SMILES: NCc1c[nH]c2nc(N)[nH]c(=O)c12

- KD [10]: 490 ± 368 nM
- binding ([7]; 1.8 Å): yes
- binding ([4]; 50 mM Tris-d11 pH 7.5, 5% DMSO-d6, compound 375 µM): yes
- KD [11]: 99 ± 38 nM
- EC50 [8]: 359000 ± 23000 nM
- binding ([1]; 1.8 Å): yes
- binding ([9]; 50 mM Tris pH 8.3, 5% DMSO, room temperature, compound 0.1-300 µM): yes
- KD [2]: 457 ± 202 nM
- KD [3]: 534 ± 123 nM
SMILES: NCCOc1ccc2oc3ccccc3c2c1
